The values that follow come from US5045548A, “Quinolyl methoxy compounds and their use as antiasthmatic agents” (Fujisawa Pharmaceutical Company, Ltd., priority 1987, dated 1991).

The test concerns SRS-A (Slow Reacting Substance of Anaphylaxis) synthesis in rat polymorpholeukocyte (PMN). The experiment in a line: Inhibitory Activity of SRS-A synthesis in rat polymorpholeukocyte (PMN) using the calcium ionophore A23187 (i-LTC4 by radioimmunoassay). Conditions: 10 μM A23187, 15 min, 37° C. Format: cell-based, rat (male Sprague-Dawley). As for the experimental part:
Test I: Inhibitory Activity of SRS-A (Slow Reacting Substance of Anaphylaxis) synthesis in rat polymorpholeukocyte (PMN) of using the calcium ionophore Male Sprague-Dawley rats weighing 250-300 g were anesthetized with ether and each was injected intraperitoneally with 20 ml of 0.1% clycogen (from Oyster). After 20 hours the rats were sacrificed and PMN were recovered in rinse of the peritoneal cavity with 10 ml Dulbeccos PBS (components in g/L: CaCl2 0.1, KH2 PO4 0.2, MgCl2.6H2 O 0.1, NaCl 8.0, Na2 HPO4.7H2 O 2.16; pH7.4). These rinses were filtered through nylon wool filter and centrifuged for 5 min at 1000 xg. The pellet was suspended in Dulbeccos PBS and centrifuged for 5 min at 1000 xg. The pellet was resuspended in Dulbeccos PBS and adjusted the cell concentration to 10^7 cells/ml with Dulbeccos PBS. Samples were dissolved in ethanol and dispersed in Dulbeccos PBS to give a concentration of 10^-10 -10^-5 M Antibiotic A23187; calcium ionophor ([…] Diagnostics) (hereinafter referred to A23187) in DMSO(10mM) was diluted with Dulbeccos PBS to give the concentration of 1 mM. Aliquots of the cell suspension (1×10^7 cells/ml, 0.98 ml) were equilibrated for 30 min at 37° C. Solution of sample(10 μl) was added and incubated for 15 min at 37° C. before the addition of 10 μl of A23187 solution. Thus the final incubation volume of 1 ml contained approximately 1×10^7 cells, 10^-10 -10^-5 M samples and 10 μM A23187. Incubation with A23187 were continued for 15 min at 37° C. The reactions were terminated by setting the assay tubes in ice bath to chill as rapidly as possible to 4° C. The test tubes were centrifuged at 1500 xg for 5 min at 4° C. and decanted the supernatants into the tubes and kept cold prior to assaying. The concentration of i-LTC4 in the cell-free supernatants from the incubations were determined by specific radioimmunoassay. The mean values of i-LTC4 (these incubations were carried out in duplicate) of each sample were calculated and the effect of samples on the synthesis of the leukotrienes was presented as a percentage of the value in the absence of samples.

SMILES strings stand for the structures. Counter-ions that a name gives are not always drawn.

With `CCCCC1(CCCC)CCc2c(OCc3ccc4ccccc4n3)ccc(C)c2C1=O` [Example 39], the IC50 (Rattus norvegicus, 0.25 h) was determined as 640 nM.

With `CCCCC1(CCCC)CCc2c(OCc3ccc4ccccc4n3)ccc(O)c2C1O` (stereo not drawn) [Example 36, 2,2-Dibutyl-8-hydroxy-5-(2-quinolylmethoxy)-1,2,3,4-tetrahydro-1-naphthol hydrochloride], for the setting “Rattus norvegicus, 0.25 h”, the IC50 amounted to 120 nM.

With `CCCCC1(CCCC)CCc2ccc(OCc3ccc4ccccc4n3)cc2C1=O` [Example 19, 2,2-Dibutyl-3,4-dihydro-7-(2-quinolylmethoxy)-1(2H)-naphthalenone], the concentration for half-maximal inhibition (IC50) (Rattus norvegicus, 0.25 h) came to 1100 nM.

On to `CCCCC1(CCCC)Cc2c(OCc3ccc4ccccc4n3)cccc2C1=O` [Example 5, 2,2-Dibutyl-4-(2-quinolylmethoxy)-1-indanone hydrochloride], for which the IC50 (Rattus norvegicus, 0.25 h) was determined as 280 nM.

Take `CCCCC1(CCCC)CCc2c(OCc3nc4ccccc4n3C)cccc2C1O` (stereo not drawn) [Example 26, 2,2-Dibutyl-5-[2-(1-methylbenzimidazolyl)methoxy]-1,2,3,4-tetrahydro-1-naphthol]: the IC50 (Rattus norvegicus, 0.25 h) was determined as 210 nM.

For the compound `CCCCC1(CCCC)CCc2c(OCc3ccc4ccccc4n3)cccc2C1O` (single isomer, unassigned; (+)) [Example 41, (+)-2,2-dibutyl-5-(2-quinolylmethoxy)-1,2,3,4-tetrahydro-1-naphthol hydrochloride], for the setting “hydrochloride”, the half-maximal inhibitory concentration (IC50) stood at 5.6 nM.

As for `CCCCC1CCc2ccc(OCc3ccc4ccccc4n3)cc2C1O` (stereo not drawn) [Example 21, 2-butyl-7-(2-quinolylmethoxy)-1,2,3,4-tetrahydro-1-naphthol hydrochloride], for the setting “Rattus norvegicus, 0.25 h”, the IC50 is 430 nM.

As to `CCCCC1CCc2c(OCc3ccc4ccccc4n3)cccc2C1O` (stereo not drawn) [Example 20, 2-Butyl-5-(2-quinolylmethoxy)-1,2,3,4-tetrahydro-1-naphthol], the half-maximal inhibitory concentration (IC50) (Rattus norvegicus, 0.25 h) was 83 nM.

Regarding `CCCCC1(CCCC)CCc2c(OCc3ccc4ccccc4n3)ccc(C)c2C1O` (stereo not drawn) [Example 35, 2,2-Dibutyl-8-methyl-5-(2-quinolylmethoxy)-1,2,3,4-tetrahydro-1-naphthol], the half-inhibitory concentration (IC50) (Rattus norvegicus, 0.25 h) was 6.5 nM.

For `CCCCCC1(CCCCC)CCc2c(OCc3ccc4ccccc4n3)cccc2C1O` (stereo not drawn) [Example 14, 2,2-Dipentyl-5-(2-quinolylmethoxy)-1,2,3,4-tetrahydro-1-naphthol], the IC50 (Rattus norvegicus, 0.25 h) is 42 nM.

Take `CCCCC1(CCCC)CCc2ccc(OCc3ccc4ccccc4n3)cc2C1O` (stereo not drawn) [Example 22, 2,2-Dibutyl-7-(2-quinolylmethoxy)-1,2,3,4-tetrahydro-1-naphthol hydrochloride]: for the setting “Rattus norvegicus, 0.25 h”, the 50% inhibitory concentration (IC50) turned out to be 860 nM.

In the case of `CCCCC1(CCCC)CCc2c(OCc3ccccn3)cccc2C1O` (stereo not drawn) [Example 7, 2,2-dibutyl-5-(2-pyridylmethoxy)-1,2,3,4-tetrahydro-1-naphthol], the IC50 (Rattus norvegicus, 0.25 h) came out at 81 nM.

For the compound `CCCCC1(CCCC)Cc2c(OCc3ccc4ccccc4n3)cccc2C1O` (stereo not drawn) [Example 15, 2,2-Dibutyl-4-(2-quinolylmethoxy)-1-indanol], the half-inhibitory concentration (IC50) (Rattus norvegicus, 0.25 h) is 210 nM.

Consider `CCCCC1(CCCC)CCc2c(OCc3ccccc3C(N)=O)cccc2C1O` (stereo not drawn) [Example 8, 2,2-dibutyl-5-(2-carbamoylbenzyloxy)-1,2,3,4-tetrahydro-1-naphthol], for which the IC50 (Rattus norvegicus, 0.25 h) was 160 nM.

Consider `CCCCC1CCc2ccc(OCc3ccc4ccccc4n3)cc2C1=O` (stereo not drawn) [Example 23, 2-Butyl-3,4-dihydro-7-(2-quinolylmethoxy)-1(2H)-naphthalenone hydrochloride], for which, where the note is “Rattus norvegicus, 0.25 h”, the half-maximal inhibitory concentration (IC50) turned out to be 1100 nM.

`CCCCC1(CCCC)CCc2c(OCC3=C(C)C(=O)c4ccccc4C3=O)cccc2C1O` (stereo not drawn) [Example 27, 2,2-Dibutyl-5-[2-(3-methyl-1,4-naphthalenedionyl)methoxy]-1,2,3,4-tetrahydro-1-naphthol]: under “Rattus norvegicus, 0.25 h”, the IC50 worked out at 300 nM.

As for `CCCCC1(CCCC)CCc2c(OCc3ccc4ccccc4n3)ccc(O)c2C1=O` [Example 38, 2,2-Dibutyl-3,4-dihydro-8-hydroxy-5-(2-quinolylmethoxy)-1(2H)-naphthalenonehydrochloride], the half-inhibitory concentration (IC50) (Rattus norvegicus, 0.25 h) was determined as 360 nM.

On to `CCCC1(CCC)CCc2c(OCc3ccc4ccccc4n3)cccc2C1O` (stereo not drawn) [Example 13, 2,2-Dipropyl-5-(2-quinolylmethoxy)-1,2,3,4-tetrahydro-1-naphthol], for which the IC50 (Rattus norvegicus, 0.25 h) came to 15 nM.
